The results in this text go back to patent US20130011361A1, “PYRAZOLE DERIVATIVES WHICH MODULATE STEAROYL-COA DESATURASE” (XENON PHARMACEUTICALS INC., priority 2009, published 2013).

Structures are written as SMILES.

Data set [1] concerns the target T1, stearoyl-CoA desaturase (SCD1) (Mus musculus, UniProt P13516).
T1 construct: Reactions are started by adding 50 μL of microsomes (1.25 mg/mL); from tissue; host or cells: liver microsomes of male ICR outbred mice on a high-carbohydrate, low-fat diet
T1 sequence (P13516 1-355): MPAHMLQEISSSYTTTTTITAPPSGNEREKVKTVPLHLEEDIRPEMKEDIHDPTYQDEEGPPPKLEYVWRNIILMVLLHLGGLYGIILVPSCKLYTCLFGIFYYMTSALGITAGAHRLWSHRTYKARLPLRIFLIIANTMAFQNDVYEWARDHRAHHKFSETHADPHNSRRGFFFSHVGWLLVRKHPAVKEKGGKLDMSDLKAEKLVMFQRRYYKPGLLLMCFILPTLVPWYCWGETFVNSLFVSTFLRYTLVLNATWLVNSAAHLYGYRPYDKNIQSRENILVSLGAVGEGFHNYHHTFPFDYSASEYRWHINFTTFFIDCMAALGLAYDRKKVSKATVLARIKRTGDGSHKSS
The data set can be described thus: SCD inhibition assay using mouse liver microsomes (release of 3H2O from [9,10-3H]stearoyl-CoA). Format: biochemical. The conditions noted are these: 15 min incubation, 25° C., read-out: Microsomal IC50. The method, then: Measuring Stearoyl-CoA Desaturase Inhibition Activity of a Test Compound Using Mouse Liver Microsomes
Livers are immediately rinsed with cold 0.9% NaCl solution, weighed and minced with scissors. All procedures are performed at 4° C. unless specified otherwise. Livers are homogenized in a solution (1/3 w/v) containing 0.25 M sucrose, 62 mM potassium phosphate buffer (pH 7.0), 0.15 M KCl, 15 mM N-acetyleysteine, 5 mM MgCl2, and 0.1 mM EDTA using 4 strokes of a Potter-Elvehjem tissue homogenizer. The homogenate is centrifuged at 10,400×g for 20 min to eliminate mitochondria and cellular debris. The supernatant is filtered through a 3-layer cheesecloth and centrifuged at 105,000×g for 60 min. The microsomal pellet is gently resuspended in the same homogenization solution with a small glass/teflon homogenizer and stored at ˜70° C. The absence of mitochondrial contamination is enzymatically assessed. The protein concentration is measured using bovine serum albumin as the standard.
Desaturase activity is measured as the release of ^3H2O from [9,10-^3H]stearoyl-CoA. Reactions per assay point conditions are as follows: 2 μL 1.5 mM stearoyl-CoA, 0.25 μL 1 mCi/mL ^3H stearoyl CoA, 10 μL 20 mM NADH, 36.75 μL 0.1 M PK buffer (K2HPO4/NaH2PO4, pH 7.2). The test compound or control solution is added in a 1 μL volume. […] The plates are mixed and after 15 min incubation on a heating block (25° C.), the reactions are stopped by the addition of 10 μL 60% PCA. An aliquot of 100 μL is then transferred to a filter plate pretreated with charcoal and the plate centrifuged at 4000 rpm for 1 minute. The flow through containing the ^3H2O released by the SCD1 desaturation reaction is added to scintillation fluid and the radioactivity measured in a Packard TopCount. The data is analysed to identify the IC50 for test compounds and reference compounds.
The activity was defined in terms of % SCD enzyme activity remaining at the desired concentration of the test compound or as the IC50 concentration.
For orientation: Liver microsomes are a subcellular fraction often used to study metabolism.

Broadly, the melting point is the temperature of the solid-liquid transition. As usually defined, the IC50 is the concentration at which inhibition is half-maximal. With `O=C(NCc1ccc(F)c(F)c1)c1cc(-n2cnn(Cc3ccc(F)cc3)c2=O)n[nH]1` [Example 1, N-(3,4-difluorobenzyl)-3-(1-(4-fluorobenzyl)-5-oxo-1H-1,2,4-triazol-4(5H)-yl)-1H-pyrazole-5-carboxamide], the melting point lay in the range of 208 to 209 °C. In data set [1], the IC50 was 8 nM. On the same counts, the results for `O=C(NCc1cccnc1)c1cc(-n2cnn(Cc3ccc(F)cc3)c2=O)n[nH]1` [Example 2, 3-(1-(4-fluorobenzyl)-5-oxo-1H-1,2,4-triazol-4(5H)-yl)-N-(pyridin-3-ylmethyl)-1H-pyrazole-3-carboxamide] are 235 to 236 °C and 7 nM.

Take `O=C(NCc1ccccc1)c1cc(-n2cnn(Cc3ccc(F)cc3)c2=O)n[nH]1` [Example 2.1, N-benzyl-3-(1-(4-fluorobenzyl)-5-oxo-1H-1,2,4-triazol-4(5H)-yl)-1H-pyrazole-5-carboxamide]: the IC50 in data set [1] amounted to 6 nM. In turn, `CNC(=O)c1cc(-n2cnn(Cc3ccc(F)cc3)c2=O)n[nH]1` [Example 2.2, 3-(1-(4-Fluorobenzyl)-5-oxo-1H-1,2,4-triazol-4(5H)-yl)-N-methyl-1H-pyrazole-5-carboxamide] registered a melting point of 268 to 269 °C. In data set [1], the IC50 worked out at 385 nM. The corresponding values for `O=C(NCc1ccccn1)c1cc(N2CCN(Cc3ccc(F)cc3)C2=O)n[nH]1` [Example 3, 3-(3-(4-fluorobenzyl)-2-oxoimidazolidin-1-yl)-N-(pyridin-2-ylmethyl)-1H-pyrazole-5-carboxamide] are 235 to 237 °C and 45 nM. Regarding `Cc1cc(CNC(=O)c2cc(N3CCN(Cc4ccc(F)cc4)C3=O)n[nH]2)n[nH]1` [Example 4, 3-(3-(4-fluorobenzyl)-2-oxoimidazolidin-1-yl)-N-((5-methyl-1H-pyrazol-3-yl)methyl)-1H-pyrazole-5-carboxamide], the melting point lay in the range of 254 to 255 °C. In data set [1], the IC50 came to 88 nM. The corresponding values for `Cc1cc(CNC(=O)c2cc(N3CCN(Cc4ccc(F)cc4)C3=O)n[nH]2)no1` [Example 5, 3-(3-(4-fluorobenzyl)-2-oxoimidazolidin-1-yl)-N-((5-methylisoxazol-3-yl)methyl)-1H-pyrazole-5-carboxamide] are 294 to 296 °C (dec.) and 37 nM. The compound `O=C(NCc1cccnc1)c1cc(N2CCN(Cc3ccc(F)cc3)C2=O)n[nH]1` [Example 6, 3-(3-(4-fluorobenzyl)-2-oxoimidazolidin-1-yl)-N-(pyridin-3-ylmethyl)-1H-pyrazole-5-carboxamide] registered a melting point of 251 to 253 °C. In addition, the IC50 in data set [1] came out at 3 nM. On to `Cc1cc(CNC(=O)c2cc(-n3cnn(Cc4ccc(F)cc4)c3=O)n[nH]2)no1` [Example 7, 3-(1-(4-fluorobenzyl)-5-oxo-1H-1,2,4-triazol-4(5H)-yl)-N-((5-methylisoxazol-3-yl)methyl)-1H-pyrazole-5-carboxamide], for which the melting point is 276 to 277 °C. For the same compound, the IC50 in data set [1] worked out at 22 nM. The corresponding values for `O=C(NCc1ccccn1)c1cc(-n2cnn(Cc3ccc(F)cc3)c2=O)n[nH]1` [Example 8, 3-(1-(4-fluorobenzyl)-5-oxo-1H-1,2,4-triazol-4(5H)-yl)-N-(pyridin-2-ylmethyl)-1H-pyrazole-5-carboxamide] are 224 to 225 °C and 23 nM. As for `Cn1cc(CNC(=O)c2cc(N3CCN(Cc4ccc(F)cc4)C3=O)n[nH]2)cn1` [Example 8.1, 3-(3-(4-fluorobenzyl)-2-oxoimidazolidin-1-yl)-N-((1-methyl-1H-pyrazol-4-yl)methyl)-1H-pyrazole-5-carboxamide], the melting point is 244 to 245 °C. Besides, the IC50 in data set [1] is 122 nM. `O=C(NCc1nccs1)c1cc(N2CCN(Cc3ccc(F)cc3)C2=O)n[nH]1` [Example 8.2, 3-(3-(4-fluorobenzyl)-2-oxoimidazolidin-1-yl)-N-(thiazol-2-ylmethyl)-1H-pyrazole-5-carboxamide] came in with a melting point of 272 to 274 °C. For the same compound, the IC50 in data set [1] is 8 nM. Regarding `O=C(NCc1ccccc1)c1cc(N2CCN(Cc3ccc(F)cc3)C2=O)n[nH]1` [Example 8.3, N-benzyl-3-(3-(4-fluorobenzyl)-2-oxoimidazolidin-1-yl)-1H-pyrazole-5-carboxamide], the IC50 in data set [1] is 11 nM. The compound `NC(=O)c1cc(N2CCN(Cc3ccc(F)cc3)C2=O)n[nH]1` [Example 8.4, 3-(3-(4-fluorobenzyl)-2-oxoimidazolidin-1-yl)-1H-pyrazole-5-carboxamide] came in with a melting point of 256 to 258 °C. The IC50 in data set [1] is 368 nM.

Turning to `NC(=O)c1cc(-n2cnn(Cc3ccc(F)cc3)c2=O)n[nH]1` [Example 8.5, 3-(1-(4-fluorobenzyl)-5-oxo-1H-1,2,4-triazol-4(5H)-yl)-1H-pyrazole-5-carboxamide], the melting point is greater than 270 °C. Further, the IC50 in data set [1] was determined as 488 nM.

As for `O=C(NCc1cocn1)c1cc(-n2cnn(Cc3ccc(F)cc3)c2=O)n[nH]1` [Example 8.6, 3-(1-(4-fluorobenzyl)-5-oxo-1H-1,2,4-triazol-4(5H)-yl)-N-(oxazol-4-ylmethyl)-1H-pyrazole-5-carboxamide], the melting point was in the range of 267 to 268 °C. The IC50 in data set [1] turned out to be 165 nM. For the compound `O=C(NCc1ccncc1)c1cc(-n2cnn(Cc3ccc(F)cc3)c2=O)n[nH]1` [Example 8.8, 3-(1-(4-fluorobenzyl)-5-oxo-1H-1,2,4-triazol-4(5H)-yl)-N-(pyridin-4-ylmethyl)-1H-pyrazole-5-carboxamide], the melting point was 262 to 263 °C. In addition, the IC50 in data set [1] came out at 65 nM.
